From the NIST ThermoML archive (doi:10.1016/j.jct.2010.02.015)
Values joined by “and” are separate entries in the source; they are usually repeats but may differ in a detail not shown here. Identical values can stand only once.

Settings: Gas, Buoyancy - hydrostatic balance with magnetic suspension - two sinkers

[He] [helium]
Settings	mass density
323.15 K, 4247.2 kPa	6.2127 kg/m3
323.15 K, 4247.3 kPa	6.2128 kg/m3 and 6.2127 kg/m3
323.15 K, 4851.3 kPa	7.0783 kg/m3 and 7.0787 kg/m3 and 7.0785 kg/m3
323.15 K, 4851.4 kPa	7.0788 kg/m3
323.15 K, 7550.9 kPa	10.893 kg/m3
323.15 K, 7551 kPa	10.8932 kg/m3 and 10.8928 kg/m3 and 10.8929 kg/m3
323.15 K, 7816.5 kPa	11.2639 kg/m3
323.15 K, 7816.6 kPa	11.264 kg/m3 and 11.2637 kg/m3
323.15 K, 11516 kPa	16.3444 kg/m3 and 16.3445 kg/m3
323.15 K, 11561 kPa	16.4063 kg/m3 and 16.4048 kg/m3
323.15 K, 15406 kPa	21.5262 kg/m3 and 21.5263 kg/m3 and 21.5265 kg/m3
323.15 K, 15457 kPa	21.5934 kg/m3 and 21.5932 kg/m3
323.15 K, 15458 kPa	21.5942 kg/m3
323.15 K, 18569 kPa	25.6255 kg/m3 and 25.6259 kg/m3
323.15 K, 18570 kPa	25.6261 kg/m3 and 25.6263 kg/m3
323.15 K, 19211 kPa	26.4456 kg/m3
323.15 K, 19212 kPa	26.4466 kg/m3 and 26.446 kg/m3
323.15 K, 24300 kPa	32.8067 kg/m3
323.15 K, 24301 kPa	32.8072 kg/m3 and 32.807 kg/m3 and 32.8069 kg/m3
323.15 K, 25287 kPa	34.0129 kg/m3 and 34.0124 kg/m3
323.15 K, 25288 kPa	34.0134 kg/m3
323.15 K, 25289 kPa	34.0147 kg/m3
323.15 K, 30738 kPa	40.5213 kg/m3
323.15 K, 30739 kPa	40.522 kg/m3
323.15 K, 30740 kPa	40.5237 kg/m3 and 40.5227 kg/m3
323.15 K, 32137 kPa	42.1508 kg/m3
323.15 K, 32138 kPa	42.1518 kg/m3 and 42.1514 kg/m3
323.15 K, 32139 kPa	42.1524 kg/m3
323.15 K, 37733 kPa	48.5152 kg/m3
323.15 K, 37734 kPa	48.5163 kg/m3
323.15 K, 37735 kPa	48.5178 kg/m3
323.15 K, 37736 kPa	48.5195 kg/m3
323.15 K, 37959 kPa	48.7675 kg/m3
323.15 K, 37960 kPa	48.7683 kg/m3 and 48.7679 kg/m3
323.15 K, 37961 kPa	48.7698 kg/m3
350 K, 4685.1 kPa	6.3268 kg/m3 and 6.3265 kg/m3
350 K, 4685.2 kPa	6.3269 kg/m3 and 6.3267 kg/m3
350 K, 7452.5 kPa	9.9569 kg/m3 and 9.9566 kg/m3 and 9.9568 kg/m3
350 K, 11158 kPa	14.7003 kg/m3 and 14.7004 kg/m3 and 14.7008 kg/m3
350 K, 15078 kPa	19.5787 kg/m3 and 19.579 kg/m3 and 19.5788 kg/m3
350 K, 15079 kPa	19.5795 kg/m3
350 K, 18991 kPa	24.3127 kg/m3 and 24.3128 kg/m3
350 K, 18992 kPa	24.313 kg/m3 and 24.3135 kg/m3
350 K, 24052 kPa	30.2468 kg/m3 [middle of 4 runs]
350 K, 30655 kPa	37.6887 kg/m3
350 K, 30656 kPa	37.6893 kg/m3 and 37.6888 kg/m3
350 K, 30658 kPa	37.6913 kg/m3
350 K, 37804 kPa	45.3924 kg/m3
350 K, 37805 kPa	45.3931 kg/m3
350 K, 37806 kPa	45.3936 kg/m3 and 45.3946 kg/m3
375 K, 4669.4 kPa	5.8931 kg/m3 and 5.893 kg/m3 and 5.8932 kg/m3
375 K, 7673.3 kPa	9.581 kg/m3 and 9.5809 kg/m3
375 K, 7673.4 kPa	9.5815 kg/m3 and 9.5814 kg/m3
375 K, 7673.5 kPa	9.5816 kg/m3
375 K, 11339 kPa	13.9783 kg/m3 and 13.9779 kg/m3 and 13.9781 kg/m3
375 K, 14992 kPa	18.2509 kg/m3 and 18.2507 kg/m3
375 K, 14993 kPa	18.2512 kg/m3 and 18.2509 kg/m3
375 K, 19144 kPa	22.9816 kg/m3 and 22.9811 kg/m3 and 22.981 kg/m3
375 K, 19145 kPa	22.9817 kg/m3 and 22.9816 kg/m3
375 K, 24590 kPa	28.996 kg/m3
375 K, 24591 kPa	28.9965 kg/m3 and 28.9964 kg/m3 and 28.9966 kg/m3
375 K, 30460 kPa	35.251 kg/m3
375 K, 30461 kPa	35.2518 kg/m3 and 35.2512 kg/m3
375 K, 30462 kPa	35.2524 kg/m3
375 K, 30463 kPa	35.2534 kg/m3
375 K, 37969 kPa	42.9318 kg/m3
375 K, 37970 kPa	42.9322 kg/m3
375 K, 37971 kPa	42.9332 kg/m3
375 K, 37972 kPa	42.9339 kg/m3
375 K, 37973 kPa	42.9352 kg/m3
400 K, 5058.3 kPa	5.9844 kg/m3 [middle of 4 runs]
400 K, 7571.3 kPa	8.8831 kg/m3 and 8.8829 kg/m3
400 K, 7571.4 kPa	8.883 kg/m3 and 8.8833 kg/m3
400 K, 11460 kPa	13.2766 kg/m3 and 13.2769 kg/m3 and 13.2767 kg/m3
400 K, 14777 kPa	16.9377 kg/m3 [middle of 4 runs]
400 K, 19142 kPa	21.6423 kg/m3 and 21.6418 kg/m3 and 21.6416 kg/m3
400 K, 19143 kPa	21.6425 kg/m3
400 K, 23882 kPa	26.6105 kg/m3
400 K, 23883 kPa	26.6111 kg/m3
400 K, 23884 kPa	26.6117 kg/m3 and 26.6114 kg/m3
400 K, 29989 kPa	32.8083 kg/m3
400 K, 29990 kPa	32.8093 kg/m3 and 32.8086 kg/m3
400 K, 29991 kPa	32.8101 kg/m3
400 K, 37939 kPa	40.5581 kg/m3
400 K, 37940 kPa	40.5595 kg/m3
400 K, 37941 kPa	40.56 kg/m3
400 K, 37942 kPa	40.5606 kg/m3
425 K, 7875.4 kPa	8.7027 kg/m3
425 K, 7875.6 kPa	8.703 kg/m3
425 K, 7875.7 kPa	8.703 kg/m3
425 K, 7875.8 kPa	8.7031 kg/m3
425 K, 11516 kPa	12.586 kg/m3 and 12.5859 kg/m3
425 K, 11517 kPa	12.5867 kg/m3 and 12.5863 kg/m3
425 K, 15540 kPa	16.7803 kg/m3
425 K, 15541 kPa	16.7806 kg/m3 and 16.7809 kg/m3
425 K, 19133 kPa	20.4427 kg/m3 and 20.4422 kg/m3
425 K, 19134 kPa	20.4431 kg/m3
425 K, 25118 kPa	26.3791 kg/m3
425 K, 25119 kPa	26.3797 kg/m3
425 K, 25120 kPa	26.3801 kg/m3 and 26.3808 kg/m3
425 K, 31604 kPa	32.5927 kg/m3
425 K, 31605 kPa	32.5929 kg/m3
425 K, 31606 kPa	32.5939 kg/m3
425 K, 31607 kPa	32.5953 kg/m3
425 K, 37906 kPa	38.4268 kg/m3
425 K, 37908 kPa	38.4278 kg/m3
425 K, 37909 kPa	38.4293 kg/m3
425 K, 37913 kPa	38.4326 kg/m3
450 K, 4775.3 kPa	5.0371 kg/m3
450 K, 4775.4 kPa	5.0373 kg/m3 and 5.0374 kg/m3
450 K, 7655.9 kPa	8.0083 kg/m3
450 K, 7656 kPa	8.0084 kg/m3 and 8.0085 kg/m3
450 K, 11907 kPa	12.3041 kg/m3 [middle of 4 runs]
450 K, 15358 kPa	15.7171 kg/m3 [middle of 4 runs]
450 K, 18965 kPa	19.2155 kg/m3
450 K, 18966 kPa	19.2158 kg/m3 and 19.2164 kg/m3 and 19.2154 kg/m3
450 K, 24940 kPa	24.8633 kg/m3 and 24.8624 kg/m3
450 K, 24941 kPa	24.8636 kg/m3
450 K, 24943 kPa	24.8658 kg/m3
450 K, 31394 kPa	30.7672 kg/m3
450 K, 31395 kPa	30.7683 kg/m3
450 K, 31396 kPa	30.7693 kg/m3
450 K, 31398 kPa	30.7705 kg/m3
450 K, 37608 kPa	36.2728 kg/m3
450 K, 37610 kPa	36.274 kg/m3
450 K, 37611 kPa	36.2757 kg/m3
450 K, 37613 kPa	36.2772 kg/m3
475 K, 4812.4 kPa	4.813 kg/m3 and 4.8133 kg/m3 and 4.8131 kg/m3
475 K, 7937.7 kPa	7.8707 kg/m3
475 K, 7937.9 kPa	7.871 kg/m3
475 K, 7938 kPa	7.8709 kg/m3
475 K, 11474 kPa	11.2698 kg/m3 and 11.2694 kg/m3
475 K, 11475 kPa	11.2697 kg/m3 and 11.2696 kg/m3
475 K, 15102 kPa	14.6905 kg/m3 and 14.6903 kg/m3 and 14.69 kg/m3
475 K, 15103 kPa	14.6908 kg/m3
475 K, 18995 kPa	18.29 kg/m3 and 18.2901 kg/m3 and 18.2895 kg/m3
475 K, 18996 kPa	18.2908 kg/m3
475 K, 25698 kPa	24.3237 kg/m3 and 24.3233 kg/m3
475 K, 25699 kPa	24.3246 kg/m3
475 K, 31116 kPa	29.0563 kg/m3
475 K, 31118 kPa	29.0576 kg/m3
475 K, 31119 kPa	29.0583 kg/m3
475 K, 31122 kPa	29.0604 kg/m3
475 K, 37990 kPa	34.8852 kg/m3
475 K, 37992 kPa	34.8873 kg/m3
475 K, 37994 kPa	34.8888 kg/m3
475 K, 37996 kPa	34.891 kg/m3
499.99 K, 37868 kPa	33.2206 kg/m3
500 K, 4928 kPa	4.6849 kg/m3 and 4.6846 kg/m3 and 4.685 kg/m3
500 K, 7887.1 kPa	7.4404 kg/m3 and 7.4403 kg/m3
500 K, 7887.3 kPa	7.4406 kg/m3
500 K, 11580 kPa	10.8213 kg/m3 and 10.8221 kg/m3 and 10.8212 kg/m3
500 K, 11581 kPa	10.8215 kg/m3
500 K, 15421 kPa	14.2721 kg/m3 and 14.2719 kg/m3
500 K, 15422 kPa	14.2732 kg/m3 and 14.2727 kg/m3
500 K, 19581 kPa	17.9371 kg/m3 and 17.9369 kg/m3
500 K, 19583 kPa	17.9388 kg/m3
500 K, 25162 kPa	22.7413 kg/m3
500 K, 25163 kPa	22.7419 kg/m3
500 K, 25166 kPa	22.7445 kg/m3
500 K, 30651 kPa	27.3437 kg/m3
500 K, 30652 kPa	27.3446 kg/m3
500 K, 30653 kPa	27.3454 kg/m3
500 K, 30654 kPa	27.3459 kg/m3
500 K, 37864 kPa	33.2185 kg/m3
500 K, 37865 kPa	33.2203 kg/m3
500 K, 37870 kPa	33.2239 kg/m3
